Source: patent publication US12297224B2, “Crystal form, preparation method, and application of 4'-substituted nucleoside” (Henan Genuine Biotech Co., Ltd., priority 2018, dated 2025)
Read-outs that look alike come from different tables or passages of the source.

Tests used:
[1] = Drug concentration in PBMC after oral administration in rhesus monkeys; format: in vivo; set-up: concentration of Ig-TP in PBMC: unit not given here; settings: for Drug concentration in PBMC, Compound 3TC-TP: oral 3TC 20 mg/kg
Procedure: The PBMC was separated from the remaining venous blood with Ficoll-Paque separation medium, condensed to 0.3 mL of cell suspension, counted, and stored frozen below −20° C.
The PBMC sample was crushed with an ultrasonic cell crusher, followed by addition of 3 times volume of acetonitrile, vortexed for 60 seconds, followed by 1 volume of the water, vortexed for 60 seconds, and centrifuged at 3000 rpm for 5 minutes; the supernatant was aspirated, transferred into a 10 mL round-bottom glass tube, dried in a stream of nitrogen at 40° C., and redissolved in 500 μL of methanol solution (methanol: water=2:8 (v/v)); the resulting solution was vortexed for 60 seconds, transferred into a 1.5 mL EP tube, centrifuged at 13000 rpm for 5 minutes, filtered, and centrifuged to obtain […] of supernatant for […] analysis.

in vitro = format: cell-based; settings: human
Procedure: (§1) CD4^+ T cells (Hut/CCR5) were plated into the wells of a 96-well plate ([…]), followed by addition of different compounds to be tested; the 96-well plate was incubated at 37° C. in an incubator for 3 days; 20 μL of MTT solution was added into the wells ([…]) of the 96-well plate; the 96-well plate was incubated at 37° C. in the incubator for 4 hours; 100 μL of Formazan solution was added into the wells of the 96-well plate; the 96-well plate was incubated at 37° C. in the incubator until the complete dissolution of Formazan was observed by a common optical microscope; and the absorbance of the solution was measured at 570 nm (as shown in FIGS. 2 and 4).
(§2) The cytotoxicity of the compound Ig-TP on CD4^+ T cells (Hut/CCR5) was measured using MTT assay.

[2] = Drug concentration in plasma after oral administration in rhesus monkeys; format: in vivo; settings: oral 6 mg/kg compound Ia, 24 hours
HIV-1 (HIV-luc/JRFL) = assay: microbe, parasite or virus in culture; format: cell-based; settings: for EC50: read-out: anti-HIV activity EC50 (50% effective concentration)
Source text: The plasmids used for packaging pseudotyped single-cycle infectious HIV-1 (HIV-luc/JRFL) are as follows: the plasma pLAI-Aenv-Luc contains HIV-1 isolate in which Env and Vpr genes are deleted and luciferase gene is inserted into the Nef locus; and the plasma pJRFL contains CCR5-tropic HIV-1 env gene; the two plasmas are co-transfected into HEK293T cells; the supernatant was collected, filtered, and packaged; and the virion capture was quantified by […] ELISA.
(§3) CD4^+ T cells (Hut/CCR5) were cultured in RPMI 1640 medium (Gibco) containing 10% fetal bovine serum (Gibco), 100 U/mL penicillin (Invitrogen), and 100 […] (Invitrogen). 1×10^5 Hut/CCR5 cells were added to the compound Ia or Ib, infected with HIV-luc/JRFL (1 ng p24gag), incubated at 37° C. for 3 hours, washed to remove free virus, and resuspended in cell culture medium, followed by addition of the corresponding compound to be tested, incubated at 37° C. for 3 days, and collected for measurement of the luciferase activity and calculation of the percentage of viral inhibition.
as §3, with “in” for “in RPMI”, “Ig-TP (CL-002-TP),” for “Ia or Ib,”, “virus” for “viral”

CD4+ T cells (Hut/CCR5) = assay: in vitro; format: cell-based
Procedure: as §1, §2

HIV = settings: literature (Michailidis et al 2009); read-out: anti-HIV EC50; cited from earlier work
[3] = Human immunodeficiency virus 1, Hut/CCR5, 72 h

SMILES: Nc1ccn([C@@H]2CS[C@H](COP(=O)(O)OP(=O)(O)OP(=O)(O)O)O2)c(=O)n1 [Compound 3TC-TP, reference compound]
- Drug concentration in PBMC, Compound 3TC-TP ([1]; 1 h): 0.51 pmol/10^6 cells
- Drug concentration in PBMC, Compound 3TC-TP ([1]; 6 h): 2.45 pmol/10^6 cells

SMILES: C#CC1(CO)OC(n2cnc3c(N)nc(F)nc32)C(F)C1O (stereo not drawn) [Compound Ia]
- CC50 at 3 days (in vitro): > 8000 nM
- compound Ia in plasma [2]: undetectable
- EC50 (HIV-1 (HIV-luc/JRFL); [3]): 0.9 nM

SMILES: [N-]=[N+]=NC1(COP(=O)(O)OP(=O)(O)OP(=O)(O)O)OC(n2ccc(N)nc2=O)CC1O (stereo not drawn) [Compound Ig-TP]
- CC50 (CD4+ T cells (Hut/CCR5)): 8130 nM
- cytotoxicity CC50 (CD4+ T cells (Hut/CCR5)): 2,328 ng/ml
- Drug concentration in PBMC, Compound Ig-TP ([1]; oral compound Ig 1 mg/kg, 1 h): 0.39 pmol/10^6 cells
- Drug concentration in PBMC, Compound Ig-TP ([1]; oral compound Ig 1 mg/kg, 6 h): 2.10 pmol/10^6 cells
- Drug concentration in PBMC, Compound Ig-TP ([1]; oral compound Ig 1 mg/kg, 24 h): 0.29 pmol/10^6 cells
- Drug concentration in PBMC, Compound Ig-TP ([1]; oral compound Ig 1 mg/kg, 72 h): 0.66 pmol/10^6 cells
- Drug concentration in PBMC, Compound Ig-TP ([1]; oral compound Ig 1 mg/kg, 120 h): 0.54 pmol/10^6 cells
- Drug concentration in PBMC, Compound Ig-TP ([1]; oral compound Ig 6 mg/kg, 1 h): 0.23 pmol/10^6 cells
- Drug concentration in PBMC, Compound Ig-TP ([1]; oral compound Ig 6 mg/kg, 6 h): 4.07 pmol/10^6 cells
- Drug concentration in PBMC, Compound Ig-TP ([1]; oral compound Ig 6 mg/kg, 24 h): 0.44 pmol/10^6 cells
- Drug concentration in PBMC, Compound Ig-TP ([1]; oral compound Ig 6 mg/kg, 72 h): 1.85 pmol/10^6 cells
- Drug concentration in PBMC, Compound Ig-TP ([1]; oral compound Ig 6 mg/kg, 120 h): 1.35 pmol/10^6 cells
- concentration of Ig-TP in PBMC ([1]; rhesus monkeys, oral 6 mg/kg compound Ig, 120 hours (5 days)): 1.35
- inhibition of HIV viral proliferation IC50 (HIV-1 (HIV-luc/JRFL); Hut/CCR5 cells, HIV-luc/JRFL): 0.373 ng/mL
- EC50 (HIV-1 (HIV-luc/JRFL); Hut/CCR5 cells, HIV-luc/JRFL, 3 days): 1.3 nM
- IC50 (HIV-1 (HIV-luc/JRFL); Hut/CCR5 cells, HIV-luc/JRFL, read-out: inhibition of HIV viral proliferation IC50): 1.3 nM

SMILES: C#C[C@]1(CO)O[C@@H](n2cnc3c(N)ncnc32)C[C@@H]1O [EdA, 4′-ethynyl-2′-deoxyadenosine]
- EC50 (HIV): 11 nM

SMILES: [N-]=[N+]=NC1(CO)OC(n2cnc3c(N)nc(F)nc32)C(F)C1O (stereo not drawn) [Ib]
- CC50 at 3 days (in vitro): > 149000 nM
- EC50 (HIV-1 (HIV-luc/JRFL); [3]): 0.62 nM
